Experimental data reported in patent US9757408B2 (Hayashibara Co., Ltd., priority 2010, dated 2017).
Read-outs that look alike come from different tables or passages of the source.

Key:
[1] = tested on: TNF-α production from mouse intraperitoneal macrophages; assay: IC50 for TNF-α production from mouse macrophages, LPS + IFN-γ, nucleic acid derivatives (Experiment 19); format: cell-based; details: for IC50 / IC50 Concentration TNF-α: mouse macrophages, LPS and IFN-γ, 20 hours; for IC50: read-out: IC50 Concentration TNF-α; for inhibitory action on the production of inflammatory cytokines (in words): mouse intraperitoneal macrophages stimulated with LPS and IFN-γ
From the text: (§1) After completion of the culture, the supernatant in each well was collected and assayed for cytokines and prostaglandin E2 (called “PGE2”, hereinafter) with ELISA.

[2] = tested on: IL-6 production from mouse intraperitoneal macrophages; assay: IC50 for IL-6 production from mouse macrophages, LPS + IFN-γ (Experiment 19); format: cell-based; details: for IC50 Concentration IL-6 / IC50: mouse macrophages, LPS and IFN-γ, 20 hours; for IC50: read-out: IC50 Concentration IL-6; for inhibition of the production of IL-6 (in words): mouse intraperitoneal macrophages stimulated with LPS and IFN-γ
From the text: as §1

[3] = tested on: IL-12 production from mouse intraperitoneal macrophages; assay: IC50 for IL-12 production from mouse macrophages, LPS + IFN-γ (Experiment 19); format: cell-based; details: mouse macrophages, LPS and IFN-γ, 20 hours; read-out: IC50 Concentration IL-12
From the text: as §1

[4] = tested on: PGE2 production from mouse intraperitoneal macrophages; assay: IC50 for PGE2 production from mouse macrophages, LPS + IFN-γ (Experiment 19); format: cell-based; details: mouse macrophages, LPS and IFN-γ, 20 hours; read-out: IC50 Concentration PGE2
From the text: as §1

[5] = tested on: BALB/c mice; assay: Acute toxicity test, intraperitoneal (Experiment 20); details: BALB/c mice, intraperitoneal
Experimental: As a control, only PBS was intraperitoneally administered to 10 BALB/c mice (6-week-old, female, average weight of 20 g, commercialized by Charles River Laboratories Japan Inc., Tokyo, Japan) at a dose of 1 mL/head, followed by observing the course of the mice for 24 hours.

[6] = tested on: BALB/c mice; assay: Safeness of injection preparations, i.v. once a day for seven days (Example 2); format: in vivo; details: BALB/c mice
Experimental: The safeness of the preparations prepared in the above was evaluated.

Nc1nc2c([nH]c(=O)n2[C@H]2C[C@H](O)[C@@H](CO)O2)c(=O)[nH]1 [8-OH-deoxyguanine]
IC50 [1]: > 200 µM
IC50 Concentration IL-6 [2]: Enhanced

CC1(C)[C@@H](O[C@H]2O[C@H](C(=O)O)[C@@H](O)[C@H](O)[C@H]2O[C@@H]2O[C@H](C(=O)O)[C@@H](O)[C@H](O)[C@H]2O)CC[C@]2(C)[C@H]3C(=O)C=C4[C@@H]5C[C@@](C)(C(=O)O)CC[C@]5(C)CC[C@@]4(C)[C@]3(C)CC[C@@H]12 [dipotassium glycyrrhizinate]
IC50 [1]: > 200 µM
IC50 [3]: > 200 µM
IC50 [4]: > 200 µM
IC50 [2]: > 200 µM

Nc1ncnc2c1ncn2[C@@H]1O[C@H](COP(=O)(O)O)[C@@H](O)[C@H]1O [adenosine 5′-monophosphate]
IC50 ([1]; Macrophage): 32.1 µM
inhibitory action on the production of inflammatory cytokines (in words) [1]: only a weak inhibitory action
IC50 Concentration IL-6 [2]: Not inhibited

Nc1nc2c(ncn2[C@@H]2O[C@H](CO)[C@@H](O)[C@H]2O)c(=O)[nH]1 [guanosine]
IC50 Concentration TNF-α [1]: Not inhibited
IC50 Concentration IL-6 [2]: Not inhibited

Nc1ncnc2nc[nH]c12 [adenine]
IC50 ([1]; Macrophage): 85.2 µM
inhibitory action on the production of inflammatory cytokines (in words) [1]: only a weak inhibitory action
IC50 ([2]; Macrophage): > 200 µM

Nc1nc2c(ncn2[C@@H]2O[C@H](COP(=O)(O)O)[C@@H](O)[C@H]2O)c(=O)[nH]1 [guanosine 5′-monophosphate]
IC50 Concentration TNF-α [1]: Not inhibited
IC50 Concentration IL-6 [2]: Not inhibited

Nc1nc2nc[nH]c2c(=O)[nH]1 [guanine]
IC50 Concentration TNF-α [1]: Not inhibited
IC50 Concentration IL-6 [2]: Not inhibited

Nc1nc2c(nc(O)n2[C@@H]2O[C@H](CO)[C@@H](O)[C@H]2O)c(=O)[nH]1 [8-OH-guanosine]
IC50 [1]: > 200 µM
IC50 Concentration IL-6 [2]: Enhanced

Nc1c2ncn([C@@H]3O[C@H](COP(=O)(O)O)[C@@H](O)[C@H]3O)c2nc[n+]1[O-] [adenosine N1-oxide 5′-monophosphate]
clinical laboratory test results that provide indices of renal and liver functions, versus control ([5]; blood and urine at 24 hours): no difference
change in appearance after administration ([5]; observed 24 hours): no change in appearance
IC50 [1]: 0.9 µM
IC50 [3]: > 200 µM
change in body weight and other appearance versus PBS ([6]; i.v. 0.3 mL/head once a day for seven days, followed two weeks): no significant change
clinical laboratory test results that provide indices of renal and liver functions versus PBS ([6]; i.v. once a day for seven days, two weeks after initiating): no difference
inhibition of the production of IL-6 (in words) [2]: strongly inhibited
IC50 [2]: 10.2 µM

CNC(=O)[C@H]1O[C@@H](n2cnc3c(NCc4cccc(I)c4)ncnc32)[C@H](O)[C@@H]1O [IB-MECA, 1-deoxy-1-[6-[[(3-iodophenyl-)methyl]amino]-9H-purin-9-yl]-N-methyl-β-D-ribofuranuronamide]
IC50 [1]: 0.4 µM
IC50 [3]: 4.5 µM
inhibition of the production of IL-6 (in words) [2]: no inhibition
IC50 Concentration IL-6 [2]: Not inhibited

Nc1c2[nH]cnc2nc[n+]1[O-] [adenine N1-oxide]
IC50 ([1]; Macrophage): 137 µM
inhibitory action on the production of inflammatory cytokines (in words) [1]: only a weak inhibitory action
IC50 ([2]; Macrophage): > 200 µM

CC1(C)[C@@H](O)CC[C@]2(C)[C@H]3C(=O)C=C4[C@@H]5C[C@@](C)(C(=O)O)CC[C@]5(C)CC[C@@]4(C)[C@]3(C)CC[C@@H]12 [18β-glycyrrhetinate]
IC50 [1]: 50.2 µM
IC50 [3]: > 200 µM
IC50 [4]: > 200 µM
IC50 [2]: 87.3 µM
